Experimental findings from patent US11839610B2 (priority 2022, dated 2023) are described below.

Like-named read-outs stand apart in the source and are kept apart here.

In this assay the test system is D614G S protein pseudovirus (nCoV-S-Luc-D614G) in ACE2-293T cells. Type of assay: cell-based, SARS-CoV-2.

`COc1cc2c3cc1Oc1c4c(cc5c1[C@H](Cc1ccc(cc1)Oc1cc(ccc1O)C[C@H]3N(C)CC2)N(C)CC5)OCO4` [Cepharanoline]: the “Levels of viral infection, D614G, Ave.” value is reported as 72.97% (Conc. 0.1 μM), 39.14% (Conc. 1 μM) and −20.02% (Conc. 10 μM). For the same compound, the IC50 (read-out: 50% inhibitory concentrations (IC50) for viral infection, D614G) came out at 480 ± 90 nM.
